Entries after “also recorded” stand apart in the source; their conditions may differ. Each block holds one molecule with its values, some of them ahead of it. Square brackets hold non-standard residues; d marks the D form. Ends that are not written are not given here. βVal = β-valine (β-amino acid form of Val)
Assays:
[1] = tested on: male FVB/N mice on high salt diet, kidney; assay: High salt (5%) diet intervention model, kidney; type: in vivo, mouse; conditions: 75 pmol/kg/min s.c., weeks 5-8
[2] = tested on: male FVB/N mice on high salt diet, liver; assay: High salt (5%) diet intervention model, liver; type: in vivo, mouse; conditions: weeks 5-8, peptides 75 pmol/kg/min s.c., Cand 2 mg/kg/day, captopril 3 mg/kg/day
Description: (§1) C) In the intervention (or reversal) model, male FVB/N mice were treated with selective AT2Rs agonists after the establishment of cardiovascular disease using a high salt diet, in order to reverse cardiovascular pathologies. In some experiments, the ACE inhibitor captopril (dose) or the ARB candesartan cilexetil (dose) were given for 4 weeks in drinking water. Organs examined included heart, kidney and liver and these were compared to either untreated mice or high salt-fed mice that were treated with saline.
(§2) Mice were placed on either a normal rodent diet (0.35% NaCl) which acted as control or a high salt diet (5% sodium in food chow) for 8 weeks. After 4 weeks, mice were also treated subcutaneously (via osmotic mini-pump) with either saline or an AT2R agonist (75 pmol/kg/min subcutaneously) for 4 weeks. Mice continued to be fed a high salt diet whilst receiving these treatments.
Liver sections used either picrosirius red staining or Masson's trichome staining as described above. Higher concentrations of picrosirius red were often used under polarized light microscopy. The liver was removed and sectioned with half of the liver placed in 10% formalin and the rest frozen in liquid nitrogen before being stored in ˜80° C. freezer for future use. Formalin fixed, paraffin embedded livers were sectioned at thickness of 4 μm and were stained with Masson's trichrome according to standard procedures for analysis of liver fibrosis. […] Sections were re-fixed in Bouin's solution for 1 hour at 56° C. to improve staining quality then rinsed in running tap water for 5-10 minutes to remove yellow colour. Following this, sections were stained in Weigert's iron hematoxylin working solution for 10 minutes. Rinsed in running warm tap water for 10 minutes. Washed in distilled water. Stained in Biebrich scarlet-acid fuchsin solution for 10-15 minutes.
Washed in distilled water. Differentiated in phosphomolybdic-phosphotungstic acid solution for 10-15 minutes or until collagen was no longer red. Sections were transferred directly (without rinse) to aniline blue solution and stained for 5-10 minutes. Rinsed briefly in distilled water and differentiated in 1% acetic acid solution for 2-5 minutes. Washed in distilled water. […] Mounted with DPX mounting medium. Quantification of liver fibrosis was performed using images captured with the Aperio scanner (Monash Histology Platform, Monash University), with ×5 magnification. Each liver section had 5 different fields of view photographed at this magnification. Percentage of interstitial and perivascular collagen was analysed and quantified using ImageJ 1.48 software (Java, NIH), and the percentage from 5 random fields of view were averaged for final percentage of collagen for that particular animal. All analysis of collagen expression was conducted in a blinded fashion.

[3] = tested on: male FVB/N mice on high salt diet, heart; assay: High salt (5%) diet intervention model, heart; type: in vivo, mouse; conditions: for expression of P-IκBα (marker for NFκB activation) in heart: peptides 75 pmol/kg/min s.c.; for cardiac fibrosis (picrosirius red): weeks 5-8 of high salt diet, peptides 75 pmol/kg/min s.c. mini-pump, captopril 3 mg/kg/day in drinking water
Procedure, shortened: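 Male FVB/N mice fed 5% salt diet for 8 weeks (controls 0.35% NaCl); from week 4, AT2R agonist at 75 pmol/kg/min or saline given subcutaneously by osmotic minipump for 4 weeks on continued high salt. Heart collagen by picrosirius red, % interstitial staining averaged over eight fields; immunofluorescence for fibrosis/inflammation markers.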

[4] = tested on: male FVB/N mice on high salt diet, kidney; assay: High salt (5%) diet intervention model, kidney; type: in vivo, mouse; conditions: 75 pmol/kg/min s.c., weeks 5-8; remark: listed apart in the source
Description: as §1, §2
To measure collagen deposition, frozen sections of heart, kidney or aorta (all 5 μm thickness) were air dried for 10 minutes and were brought through 3 times xylene (2 minutes each), and 3 times absolute alcohol washes before being rinsed in tap H2O for 30 seconds. Staining with an optimal concentration of picrosirius red (in this instance 0.05% picrosirius red diluted in saturated picric acid) was performed and left for an hour. Sections were then rinsed in water and differentiated in 0.01M HCl for 2 minutes, followed by dehydration via 3 times absolute alcohol washes. Then, slides were brought through 3 times xylene washes before being cover slipped according to standard histological techniques using DPX as the mounting medium. Images were taken under ×20 magnification, using bright field (Olympus, BX51) and circularized polarized light microscopy (DM IRB, Leica) while percentage of positive interstitial collagen staining per total field of view was quantified using ImageJ 1.46 software (Java, NIH), and averaged out from a total of eight views as the final percentage collagen content in a particular animal.
Kidney sections used either picrosirius red staining as described above or using Mason's Trichrome staining as described below.
Formalin fixed, paraffin embedded kidneys were sectioned at thickness of 4 μm and were stained with Masson's trichrome according to standard procedures for analysis of kidney fibrosis. […] Sections were re-fixed in Bouin's solution for 1 hour at 56° C. to improve staining quality then rinsed in running tap water for 5-10 minutes to remove yellow colour. Following this, sections were stained in Weigert's iron hematoxylin working solution for 10 minutes. Rinsed in running warm tap water for 10 minutes. Washed in distilled water. Stained in Biebrich scarlet-acid fuchsin solution for 10-15 minutes. Washed in distilled water. Differentiated in phosphomolybdic-phosphotungstic acid solution for 10-15 minutes or until collagen was no longer red. Sections were transferred directly (without rinse) to aniline blue solution and stained for 5-10 minutes. Rinsed briefly in distilled water and differentiated in 1% acetic acid solution for 2-5 minutes. Washed in distilled water. […] Mounted with DPX mounting medium.
Quantification of kidney fibrosis was performed using images captured with the Aperio scanner (Monash Histology Platform, Monash University), with ×5 magnification. Each kidney section had 5 different fields of view photographed at this magnification. Percentage of tubulointerstitial collagen was analysed and quantified using ImageJ 1.48 software (Java, NIH), and the percentage from 5 random fields of view were averaged for final percentage of collagen for that particular animal. All analysis of collagen expression was conducted in a blinded fashion.

[5] = Systolic blood pressure by tail-cuff in high salt-fed mice; type: in vivo, mouse; conditions: data not shown
Description: The incision area was sutured with 6/0 DY silk ([…] Ltd) and antibiotic powder applied ([…], Pfizer) followed by intramuscular injection of the analgesic Cartrophen (0.1 ml of a 1.5 mg/ml stock solution; Biopharm Australia). Systolic blood pressure (SBP) was measured using non-invasive tail-cuff plethysmography apparatus (MC4000 Blood Pressure Analysis System, Hatteras Instrument Inc) before drug treatment (week 0), and then fortnightly. At the end of the 8 week treatment period mice were weighed before being killed by overdose of isoflurane inhalation and cervical dislocation. […] To this end, modified Ang peptides of interest were dissolved in saline and delivered subcutaneously via an implanted osmotic minipump and systolic blood pressure (SBP) was measured fortnightly.

human AT1R = molecular target: T1, human AT1R (Homo sapiens, UniProt P30556); assay: Competition radioligand binding (125I-Sar1-Ile8-AngII) in AT1R-transfected HEK-293 cells
T1 construct: expressed in transfected cells
T1 sequence (P30556 1-359): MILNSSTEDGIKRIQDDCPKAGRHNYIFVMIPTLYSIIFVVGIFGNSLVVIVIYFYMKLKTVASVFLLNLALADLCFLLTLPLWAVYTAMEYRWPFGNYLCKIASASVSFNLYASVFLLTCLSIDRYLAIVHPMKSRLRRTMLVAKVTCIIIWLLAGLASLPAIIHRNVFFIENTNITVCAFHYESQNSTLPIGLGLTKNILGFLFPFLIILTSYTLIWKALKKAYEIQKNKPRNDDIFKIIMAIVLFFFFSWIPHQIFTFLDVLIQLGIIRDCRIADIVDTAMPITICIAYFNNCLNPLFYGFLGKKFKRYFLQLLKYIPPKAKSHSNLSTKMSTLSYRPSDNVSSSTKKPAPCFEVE
Description: (§3) This will lead to the generation of IC50 values that determine the relative ability of test compounds to interact with both Angiotensin receptors.
(§4) Cells were grown to approximately 80% confluence before being re-plated into 48 well plates at 1×10^5 cells/well and grown for 48 hours at 37° C. for a whole cell competition binding assay. [125I]-Sar1Ile8Ang II at 50,000 cpm, incubated for 45 minutes at 37° C., in the absence or presence of unlabeled ligands, prepared in binding buffer (DMEM, 0.1% BSA), were used in the competition assays at concentrations ranging from 1 μM to 10 μM. For each experiment, each ligand concentration was tested in duplicate or triplicate, and each experiment was repeated at least 3 separate times. […] The ability of each ligand to inhibit specific binding of [125I]-Sar1Ile8Ang II was measured on a gamma counter with all counts corrected for NSB.

[6] = In vitro plasma stability assay (rat plasma); type: in vitro ADME; conditions: plasma from male spontaneously hypertensive rats (SHR), read-out: Plasma stability (t1/2)
Description: Proteolytic stability may be tested in a plasma stability assay used to assess the susceptibility of a peptide described herein to plasma proteases. Plasma stability may be tested using methods described herein. For example, a sample of rat plasma may be incubated with peptide of interest (final concentration was 1 mg/mL; plasma diluted by 10% with peptide dissolved in saline). Protease activity is then quenched in samples by the addition of acetonitrile, at selected time intervals. The amount of parent compound remaining at each time point can then be assayed on an Agilent 1100 MSD SL ion trap mass spectrometer. The peaks observed in the resulting chromatograms are integrated, compared to a standard curve, and cross-checked by mass and retention time (Jones et al 2011 Hypertension. 57: 570-576).
B) Proteolytic stability was tested in a plasma stability assay used to assess the susceptibility of Ang II peptides to plasma proteases. A sample of rat plasma was incubated with peptide of interest (final concentration was 1 mg/mL; plasma diluted by 10% with peptide dissolved in saline). Protease activity was quenched in samples by the addition of acetonitrile, at selected time intervals. The amount of parent compound remaining at each time point was then assayed on an Agilent 1100 MSD SL ion trap mass spectrometer. […]

human AT2R = molecular target: T2, human AT2R (Homo sapiens, UniProt P50052); assay: Competition radioligand binding (125I-Sar1-Ile8-AngII) in AT2R-transfected HEK-293 cells; conditions: transfected HEK-293 cells
T2 construct: expressed in transfected cells
T2 sequence (P50052 1-363): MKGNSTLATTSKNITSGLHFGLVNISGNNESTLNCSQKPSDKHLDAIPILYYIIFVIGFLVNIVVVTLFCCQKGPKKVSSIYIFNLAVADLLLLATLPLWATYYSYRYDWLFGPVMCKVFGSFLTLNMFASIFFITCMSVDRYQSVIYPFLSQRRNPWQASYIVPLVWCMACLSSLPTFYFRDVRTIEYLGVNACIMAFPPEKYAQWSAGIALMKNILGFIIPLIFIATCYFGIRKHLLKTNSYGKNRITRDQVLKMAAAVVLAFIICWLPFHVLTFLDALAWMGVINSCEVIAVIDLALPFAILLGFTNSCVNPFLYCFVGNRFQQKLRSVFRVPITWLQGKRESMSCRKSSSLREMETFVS
Description: as §3, §4

[7] = molecular target: T3, human Angiotensin II Receptor Type 1 (AT1R) (human, UniProt P30556 1-359); assay: competition radioligand binding on HEK-293 cells with AT1R; competitor [125I]-Sar1Ile8Ang II
T3 construct: whole, on cells; also endogenous on human cardiac fibroblasts (functional entry); also called AT1 receptor
T3 sequence (looked up): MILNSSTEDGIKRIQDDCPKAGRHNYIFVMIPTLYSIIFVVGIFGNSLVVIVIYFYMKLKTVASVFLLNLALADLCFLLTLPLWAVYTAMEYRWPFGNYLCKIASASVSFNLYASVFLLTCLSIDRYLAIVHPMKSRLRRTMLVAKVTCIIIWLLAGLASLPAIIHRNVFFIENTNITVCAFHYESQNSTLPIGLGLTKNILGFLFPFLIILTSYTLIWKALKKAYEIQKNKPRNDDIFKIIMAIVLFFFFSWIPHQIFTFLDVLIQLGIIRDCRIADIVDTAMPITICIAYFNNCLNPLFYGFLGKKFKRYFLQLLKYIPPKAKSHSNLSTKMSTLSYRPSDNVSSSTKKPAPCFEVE
Description: For each experiment, each ligand concentration was tested in duplicate or triplicate, and each experiment was repeated at least 3 separate times.

Molecule: CC[C@H](C)[C@@H](CC(=O)N[C@@H](Cc1c[nH]cn1)C(=O)N1CCC[C@H]1C(=O)N[C@@H](Cc1ccccc1)C(=O)O)NC(=O)[C@H](Cc1ccc(O)cc1)NC(=O)[C@@H](NC(=O)[C@H](CCCNC(=N)N)NC(=O)[C@@H](N)CC(=O)O)C(C)C [βIle-Ang II, Asp-Arg-Val-Tyr-β-Ile-His-Pro-Phe]
macrophage infiltration in kidney (F4/80) [1]: reversed
liver steatosis (Oil Red O) [2]: significantly reduced excess lipid accumulation
liver fibrosis (picrosirius red, polarized light) ([2]; listed as 8-Ile^5-Ang II): reversed collagen accumulation to levels seen in normal salt group
liver fibrosis (picrosirius red, polarized light) ([2]; listed as β-Ile^5-Ang II): similarly inhibited the pro-fibrotic effects of high salt in the liver
TGF-β1 protein in the heart (Western blot) ([3]; 75 pmol/kg/min s.c., weeks 5-8): significantly lower TGF-β1 protein
myofibroblast differentiation in heart (α-SMA) ([3]; 75 pmol/kg/min s.c., weeks 5-8): reduced myofibroblast differentiation
MMP-13 protein expression in heart (Western blot) ([3]; weeks 5-8, peptide 75 pmol/kg/min s.c., Cand 2 mg/kg/day, captopril 3 mg/kg/day): normalised MMP-13 to levels observed in the normal salt group
macrophage infiltration/expression in heart (F4/80) ([3]; weeks 5-8, peptide 75 pmol/kg/min s.c., Cand 2 mg/kg/day, captopril 3 mg/kg/day, listed as β-Ile^5-Ang II): reversed by all agents; also recorded: reduced macrophage infiltration/expression
expression of P-IκBα (marker for NFκB activation) in heart ([3]; weeks 5-8, Cand 2 mg/kg/day, captopril 3 mg/kg/day, listed as β-Ile^5-Ang II): significantly reduced expression of P-IκBα
cardiac fibrosis (picrosirius red) ([3]; Cand 2 mg/kg/day, listed as β-Ile^5-Ang II): reversed high salt-induced cardiac fibrosis
kidney tubulointerstitial fibrosis (Masson's trichrome) [4]: reversed high salt-induced tubulointerstitial fibrosis
systolic blood pressure (SBP) [5]: did not alter SBP

binding at AT1R (displacement of 125I-Sar1-Ile8-AngII), in words (human AT1R): bind poorly
half-life at 1 mg/mL [6]: 25.8 h
binding at AT2R (displacement of 125I-Sar1-Ile8-AngII), in words (human AT2R): high affinity
Molecule: CC[C@H](C)[C@H](NC(=O)[C@H](Cc1ccc(O)cc1)NC(=O)[C@@H](NC(=O)[C@H](CCCNC(=N)N)NC(C)=O)C(C)C)C(=O)N[C@@H](Cc1c[nH]cn1)C(=O)N1CCC[C@H]1CC(=O)N[C@@H](Cc1c[nH]c2ccccc12)C(=O)O [NAc-βPro-Trp-8-Ang III, NAc--Arg-Val-Tyr-Ile-His-β-Pro-Trp]
macrophage infiltration in kidney (F4/80) [1]: reversed high salt-induced macrophage infiltration in the kidney
renal fibrosis by hydroxyproline analysis [1]: reversed the pro-fibrotic effects of high salt in the kidney
renal inflammation (phospho-IκBα expression) [1]: reversed high salt-induced renal inflammation in the kidney
cardiac fibrosis by hydroxyproline analysis (LV collagen content) ([3]; 75 pmol/kg/min s.c., weeks 5-8): reversed the pro-fibrotic effects of high salt in the heart
cardiac oxidative stress (DHE staining) ([3]; 75 pmol/kg/min s.c., weeks 5-8): reversed the oxidative stress effects of high salt in the heart
myofibroblast differentiation in heart (α-SMA) ([3]; 75 pmol/kg/min s.c., weeks 5-8): reversed myofibroblast differentiation
expression of P-IκBα (marker for NFκB activation) in heart ([3]; weeks 5-8, Cand 2 mg/kg/day, captopril 3 mg/kg/day): reversed
cardiac fibrosis (picrosirius red) ([3]; Cand 2 mg/kg/day): reversed cardiac fibrosis
kidney glomerular fibrosis (picrosirius red) [4]: reversed the glomerular fibrosis caused by high salt in the kidney
kidney tubulointerstitial fibrosis (picrosirius red) [4]: reversed the tubulointerstitial fibrosis caused by high salt in the kidney

IC50 [7]: 1210 nM
B1: βVal-Trp-8-Ang III (peptide)
peptide: R[βVal]YIHPW
notes: synthetic peptide; also called Arg-β-Val-Tyr-Ile-His-Pro-Trp
